Read-outs that look alike come from different tables or passages of the source.
What was measured:
[1] = Rx100 salt screening (solid formation, XRPD wet/dry, filterability, exposure to RH > 90%)
Method: We designed a complex and unconventional screening regime to screen for Rx100 crystalline salts. […] The screening regime is described as follows.
Rx100.FA in the form of a viscous liquid and eighteen counter ions were used as starting materials. These counter ions are listed and numbered in Table 4. The numbers will be used for grouping the resulting solids. The screening was performed in three stages.
Stage one (1) included screening 11 counter ions: sodium hydroxide, ammonium hydroxide, ethylenediamine, diethylamine, tromethamine (Tris), hydroxyethyl morpholine, benzathine, dimethylamino ethanol, L-Arginine, L-Lysine, L-Histidine. […] In stage 1, we performed three rounds of experiment.
In the first round of experiment, four (4) solvent systems, i.e., isopropyl alcohol (IPA), diethyl ether (DEE), IPA:water (a mixture at a volume ratio of 95:5) and tetrahydrofuran (THF), were used. Thus in this first round of screening, 44 individual base-acid reactions were conducted in 44 vials.
First, Rx100.FA and each of the bases were mixed in a vial. […] In each of the 44 vials, 211.1 μL of the prepared liquid, which was equivalent to about 35 mg of Rx100.FA, was first dispensed. Then, one equivalent (molar) of each of the 11 bases was dispensed in its corresponding vial. For example, the base sodium hydroxide was added to vials 1, 12, 23 and 34. Similarly, L-histidine was added to vials 11, 22, 33 and 44. Observations were recorded upon addition of the bases in to Rx100.FA.
Second, the solvent in each mixture was depleted. All vials containing the mixtures of Rx100.FA and each of the bases were left under moderate vacuum and nitrogen bleed at room temperature overnight to evaporate the solvent. The vials were then kept under full vacuum for about an hour to make sure the solvents (ethanol and water) are evaporated. Observations on formation of solid upon evaporation were recorded.
Third, solvents were added in each vial to induce solid formation. In each vial, a stir bar and one of the four selected solvents (each 5 volumes with respect to the Rx100.FA) were added. The vials were then capped. IPA was added to the first set of 11 vials (1-11), DEE added to the second set of 11 vials (12-22), IPA:water added to the third set of 11 vials (23-33), and THF added to the fourth set of 11 vials (34-44). The vials were left at room temperature while stirring for at least 5 hours. Observations were recorded.
The first set of XRPD analyses were recorded as “wet” samples. The solids were dried under vacuum for 1 hour and at room temperature followed by XRPD as “dry” sample. The dry solid was then exposed to relative humidity of more than 90% overnight followed by XRPD analysis. For XRPD naming, a number and a letter were used. The number refers to the counter ion and the letter refers to the chronological discovered XRPD pattern of that particular salt.
In the second round of experiment of stage one, another four (4) solvent systems, i.e., methanol (MeOH), tert-Butyl methyl ether (tBME), ethyl acetate and toluene, were used in the same 44 vials as used in the first round experiment. The solvents in all 44 vials from the first round were evaporated to dryness under vacuum and nitrogen bleed. The 4 new solvents were then added into the vials. Methanol was added to the first set of 11 vials (1-11), tBME added to the second set of 11 vials (12-22), Ethyl acetate added to the third set of 11 vials (23-33), and Toluene added to the fourth set of 11 vials (34-44). The same procedure as in the first round of experiment was followed for these new solvents and samples were taken for XRPD analysis.
In the third round of experiment, effect of base equivalence was assessed. […] After addition of the extra base, the previous solvent was evaporated and new solvents added.

[2] = test system: S. typhimurium strains TA98, TA100, TA1535 and TA1537 and E. coli strain WP2uvrA; format: cell-based
Method: An Ames assay was conducted on Rx100.Lysine using S. typhimurium strains TA98, TA100, TA1535 and TA1537 and E. coli strain WP2uvrA. Two trials were performed. […] See Tables 38A and 38B, respectively. In the second trial, doses ranged from 0.160 to 16 μg/plate with some strains tested with activation and others without activation.

SMILES: CCCCCCCC/C=C\CCCCCCCCOP(O)(O)=S [Rx100.L-Lysine, (Z)—O-octadec-9-en-1-yl O,O-dihydrogen phosphorothioate]
- Stability at high humidity [1]: stable at high humidity
- Crystallinity ([1]; Rx100 salt formed with the named base, XRPD, listed as Rx100.L-Lysine salt): showed crystallinity
- Filterability ([1]; Rx100 salt formed with the named base, listed as Rx100.L-Lysine salt): filterable
- Ames assay, overall result [2]: negative
- Genotoxic Effects ([2]; Bacterial Reverse Mutation Assay, plate incorporation 52 ± 4 hours): Genotoxic Effects: None
- Revertant Colony Counts (Mean ± SD) ([2]; TA98, with metabolic activation, 1.45 μg/plate): 17 ± 5 ^N
- Revertant Colony Counts (Mean ± SD) ([2]; TA98, with metabolic activation, 4.52 μg/plate): 19 ± 3 ^N
- Revertant Colony Counts (Mean ± SD) ([2]; TA98, with metabolic activation, 14.5 μg/plate): 16 ± 5 ^N
- Revertant Colony Counts (Mean ± SD) ([2]; TA98, with metabolic activation, 45.2 μg/plate): 20 ± 6 ^N
- Revertant Colony Counts (Mean ± SD) ([2]; TA98, with metabolic activation, 145 μg/plate): 0 ± 0 ^E
- Revertant Colony Counts (Mean ± SD) ([2]; TA98, with metabolic activation, 452 μg/plate): 0 ± 0 ^V
- Revertant Colony Counts (Mean ± SD) ([2]; TA98, with metabolic activation, 1450 μg/plate): 0 ± 0 ^A
- Revertant Colony Counts (Mean ± SD) ([2]; TA98, with metabolic activation, 4520 μg/plate): 0 ± 0 ^A
- Revertant Colony Counts (Mean ± SD) ([2]; TA100, with metabolic activation, 1.45 μg/plate): 114 ± 12 ^N
- Revertant Colony Counts (Mean ± SD) ([2]; TA100, with metabolic activation, 4.52 μg/plate): 117 ± 5 ^N
- Revertant Colony Counts (Mean ± SD) ([2]; TA100, with metabolic activation, 14.5 μg/plate): 89 ± 14 ^N
- Revertant Colony Counts (Mean ± SD) ([2]; TA100, with metabolic activation, 45.2 μg/plate): 26 ± 3 ^E
- Revertant Colony Counts (Mean ± SD) ([2]; TA100, with metabolic activation, 145 μg/plate): 39 ± 3 ^M R
- Revertant Colony Counts (Mean ± SD) ([2]; TA100, with metabolic activation, 452 μg/plate): 0 ± 0 ^A T
- Revertant Colony Counts (Mean ± SD) ([2]; TA100, with metabolic activation, 1450 μg/plate): 0 ± 0 ^M A T
- Revertant Colony Counts (Mean ± SD) ([2]; TA100, with metabolic activation, 4520 μg/plate): 0 ± 0 ^A T
- Revertant Colony Counts (Mean ± SD) ([2]; TA1535, with metabolic activation, 0.0181 μg/plate): 10 ± 4 ^N M
- Revertant Colony Counts (Mean ± SD) ([2]; TA1535, with metabolic activation, 0.0452 μg/plate): 11 ± 2 ^C M N
- Revertant Colony Counts (Mean ± SD) ([2]; TA1535, with metabolic activation, 0.145 μg/plate): 9 ± 3 ^N
- Revertant Colony Counts (Mean ± SD) ([2]; TA1535, with metabolic activation, 0.452 μg/plate): 13 ± 1 ^N
- Revertant Colony Counts (Mean ± SD) ([2]; TA1535, with metabolic activation, 1.45 μg/plate): 11 ± 5 ^N
- Revertant Colony Counts (Mean ± SD) ([2]; TA1535, with metabolic activation, 4.52 μg/plate): 9 ± 1 ^N
- Revertant Colony Counts (Mean ± SD) ([2]; TA1535, with metabolic activation, 14.5 μg/plate): 11 ± 3 ^N
- Revertant Colony Counts (Mean ± SD) ([2]; TA1537, with metabolic activation, 1.45 μg/plate): 9 ± 3 ^N
- Revertant Colony Counts (Mean ± SD) ([2]; TA1537, with metabolic activation, 4.52 μg/plate): 7 ± 2 ^N M
- Revertant Colony Counts (Mean ± SD) ([2]; TA1537, with metabolic activation, 14.5 μg/plate): 6 ± 5 ^M N
- Revertant Colony Counts (Mean ± SD) ([2]; TA1537, with metabolic activation, 45.2 μg/plate): 3 ± 2 ^E
- Revertant Colony Counts (Mean ± SD) ([2]; TA1537, with metabolic activation, 145 μg/plate): 0 ± 0 ^R
- Revertant Colony Counts (Mean ± SD) ([2]; TA1537, with metabolic activation, 452 μg/plate): 0 ± 0 ^V
- Revertant Colony Counts (Mean ± SD) ([2]; TA1537, with metabolic activation, 1450 μg/plate): 0 ± 0 ^V
- Revertant Colony Counts (Mean ± SD) ([2]; TA1537, with metabolic activation, 4520 μg/plate): 0 ± 0 ^A
- Revertant Colony Counts (Mean ± SD) ([2]; WP2uvrA, with metabolic activation, 1.45 μg/plate): 13 ± 4 ^N
- Revertant Colony Counts (Mean ± SD) ([2]; WP2uvrA, with metabolic activation, 4.52 μg/plate): 17 ± 4 ^M N
- Revertant Colony Counts (Mean ± SD) ([2]; WP2uvrA, with metabolic activation, 14.5 μg/plate): 19 ± 4 ^N
- Revertant Colony Counts (Mean ± SD) ([2]; WP2uvrA, with metabolic activation, 45.2 μg/plate): 12 ± 4 ^N
- Revertant Colony Counts (Mean ± SD) ([2]; WP2uvrA, with metabolic activation, 145 μg/plate): 15 ± 4 ^N M
- Revertant Colony Counts (Mean ± SD) ([2]; WP2uvrA, with metabolic activation, 452 μg/plate): 15 ± 5 ^N
- Revertant Colony Counts (Mean ± SD) ([2]; WP2uvrA, with metabolic activation, 1450 μg/plate): 9 ± 3 ^N
- Revertant Colony Counts (Mean ± SD) ([2]; WP2uvrA, with metabolic activation, 4520 μg/plate): 0 ± 0 ^E
- Revertant Colony Counts (Mean ± SD) ([2]; Without Metabolic Activation, TA98, 0.0181 μg/plate): 15 ± 3 ^N
- Revertant Colony Counts (Mean ± SD) ([2]; Without Metabolic Activation, TA98, 0.0452 μg/plate): 15 ± 5 ^N M
- Revertant Colony Counts (Mean ± SD) ([2]; Without Metabolic Activation, TA98, 0.145 μg/plate): 13 ± 2 ^N M
- Revertant Colony Counts (Mean ± SD) ([2]; Without Metabolic Activation, TA98, 0.452 μg/plate): 13 ± 5 ^N
- Revertant Colony Counts (Mean ± SD) ([2]; Without Metabolic Activation, TA98, 1.45 μg/plate): 14 ± 2 ^N
- Revertant Colony Counts (Mean ± SD) ([2]; Without Metabolic Activation, TA98, 4.52 μg/plate): 12 ± 4 ^N
- Revertant Colony Counts (Mean ± SD) ([2]; Without Metabolic Activation, TA98, 14.5 μg/plate): 12 ± 3 ^N
- Revertant Colony Counts (Mean ± SD) ([2]; Without Metabolic Activation, TA100, 0.0181 μg/plate): 92 ± 8 ^N
- Revertant Colony Counts (Mean ± SD) ([2]; Without Metabolic Activation, TA100, 0.0452 μg/plate): 93 ± 16 ^N
- Revertant Colony Counts (Mean ± SD) ([2]; Without Metabolic Activation, TA100, 0.145 μg/plate): 88 ± 11 ^N
- Revertant Colony Counts (Mean ± SD) ([2]; Without Metabolic Activation, TA100, 0.452 μg/plate): 86 ± 13 ^N
- Revertant Colony Counts (Mean ± SD) ([2]; Without Metabolic Activation, TA100, 1.45 μg/plate): 84 ± 16 ^N
- Revertant Colony Counts (Mean ± SD) ([2]; Without Metabolic Activation, TA100, 4.52 μg/plate): 53 ± 7 ^R
- Revertant Colony Counts (Mean ± SD) ([2]; Without Metabolic Activation, TA100, 14.5 μg/plate): 51 ± 4 ^M R
- Revertant Colony Counts (Mean ± SD) ([2]; Without Metabolic Activation, TA1535, 0.0181 μg/plate): 15 ± 4 ^N
- Revertant Colony Counts (Mean ± SD) ([2]; Without Metabolic Activation, TA1535, 0.0452 μg/plate): 16 ± 2 ^N
- Revertant Colony Counts (Mean ± SD) ([2]; Without Metabolic Activation, TA1535, 0.145 μg/plate): 12 ± 1 ^N
- Revertant Colony Counts (Mean ± SD) ([2]; Without Metabolic Activation, TA1535, 0.452 μg/plate): 11 ± 3 ^N
- Revertant Colony Counts (Mean ± SD) ([2]; Without Metabolic Activation, TA1535, 1.45 μg/plate): 11 ± 2 ^N
- Revertant Colony Counts (Mean ± SD) ([2]; Without Metabolic Activation, TA1535, 4.52 μg/plate): 8 ± 3 ^N
- Revertant Colony Counts (Mean ± SD) ([2]; Without Metabolic Activation, TA1535, 14.5 μg/plate): 4 ± 1 ^R M
- Revertant Colony Counts (Mean ± SD) ([2]; Without Metabolic Activation, TA1537, 0.0181 μg/plate): 6 ± 4 ^N
- Revertant Colony Counts (Mean ± SD) ([2]; Without Metabolic Activation, TA1537, 0.0452 μg/plate): 6 ± 3 ^N M
- Revertant Colony Counts (Mean ± SD) ([2]; Without Metabolic Activation, TA1537, 0.145 μg/plate): 5 ± 0 ^M N
- Revertant Colony Counts (Mean ± SD) ([2]; Without Metabolic Activation, TA1537, 0.452 μg/plate): 6 ± 3 ^M N
- Revertant Colony Counts (Mean ± SD) ([2]; Without Metabolic Activation, TA1537, 1.45 μg/plate): 5 ± 2 ^N
- Revertant Colony Counts (Mean ± SD) ([2]; Without Metabolic Activation, TA1537, 4.52 μg/plate): 3 ± 4 ^N
- Revertant Colony Counts (Mean ± SD) ([2]; Without Metabolic Activation, TA1537, 14.5 μg/plate): 1 ± 1 ^R M
- Revertant Colony Counts (Mean ± SD) ([2]; Without Metabolic Activation, WP2uvrA, 1.45 μg/plate): 12 ± 5 ^N
- Revertant Colony Counts (Mean ± SD) ([2]; Without Metabolic Activation, WP2uvrA, 4.52 μg/plate): 13 ± 3 ^M N
- Revertant Colony Counts (Mean ± SD) ([2]; Without Metabolic Activation, WP2uvrA, 14.5 μg/plate): 17 ± 6 ^N
- Revertant Colony Counts (Mean ± SD) ([2]; Without Metabolic Activation, WP2uvrA, 45.2 μg/plate): 14 ± 4 ^N
- Revertant Colony Counts (Mean ± SD) ([2]; Without Metabolic Activation, WP2uvrA, 145 μg/plate): 15 ± 3 ^N
- Revertant Colony Counts (Mean ± SD) ([2]; Without Metabolic Activation, WP2uvrA, 452 μg/plate): 12 ± 2 ^N
- Revertant Colony Counts (Mean ± SD) ([2]; Without Metabolic Activation, WP2uvrA, 1450 μg/plate): 8 ± 3 ^E
- Revertant Colony Counts (Mean ± SD) ([2]; Without Metabolic Activation, WP2uvrA, 4520 μg/plate): 0 ± 0 ^E
- revertant colonies ([2]; any strain, any concentration (1.6 to 5000 μg/plate; 0.160 to 16 μg/plate), with or without metabolic activation): No increase in revertant colonies

— patent publication US20170226139A1, “CRYSTALLINE SALTS OF (Z)-O-OCTADEC-9-EN-1-YL O,O-DIHYDROGEN PHOSPHOROTHIOATE” (priority 2013, published 2017)
